The values that follow come from patent US11420970B1 (NOVARTIS AG, priority 2019, dated 2022).

Assay [1] has as its target NSD2 [1-1365] (Homo sapiens (Human), UniProt O96028). The experiment in a line: LC-MS/MS-based NSD2 enzymatic assay (SAH production). The format is biochemical. The settings on record: NSD2 biochemical activity, class symbols; read-out: NSD2 IC50. The method in brief:
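Full-length NSD2 [1-1365] (8 nM final) with 1 μM SAM and 400 nM mouse-liver nucleosome in Tris pH 8.0 buffer; inhibitor preincubated 20 min with enzyme/SAM before nucleosome addition. Reaction 90 min at room temperature, TFA-quenched; SAH quantified by LC-MS/MS against d4-SAH internal standard and SAH standard curve.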

Assay [2] has as its system cellular H3K36me2 level in multiple myeloma cell line KMS11 (t(4;14)+). Description: H3K36me2 cellular FRET assay in KMS11-Par line. The format is cell-based. The settings on record: Homo sapiens.
For assay [3], the system named is cellular H3K36me2 level in thyroid carcinoma cell line CGTH-W-1 (NSD2 E1099K). The experiment in a line: H3K36me2 cellular ELISA assay in CGTH-W-1 line. Type of assay: cell-based. The settings on record: Homo sapiens, CGTH-W-1, 72 h, read-out: H3K36me2 ELISA in CGTH-W-1. In outline: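 CGTH-W-1 thyroid carcinoma cells (NSD2 E1099K gain-of-function) exposed to compound for 72 hours. Histone-bound plates probed for H3K36me2 and total H3 by chemiluminescent ELISA. Viability checked on a parallel plate with CellTiter-Glo.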

The subject of assay [4] is cellular H3K36me2 level in multiple myeloma cell line KMS11 (t(4;14)+). Description: H3K36me2 cellular ELISA assay in KMS11-Par line. Type of assay: cell-based. The settings on record: Homo sapiens, read-out: H3K36me2 ELISA in KMS11-Par. In outline:
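KMS11 cells were seeded a day ahead at 1,250 per well in Opti-MEM with B-27/N2, then treated with compound for 72 h. Histones were acid-extracted with 0.4M HCl, and H3K36me2 and total H3 were read by chemiluminescent ELISA. Viability was checked with CellTiter-Glo on a parallel plate in maintenance media.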
(In an ELISA, binding on a coated surface is turned into a signal by an enzyme label.)

The mark [5] stands for this setting: KMS-11, KMS11-Par line, cellular H3K36me2 level, FRET, read-out: H3K36me2 FRET in KMS11-Par.
Where [6] appears, read: KMS-11, KMS11-Par line (t(4;14)+), 72 hours treatment, ELISA.

NSD2 [1-1365], sequence (O96028 whole entry): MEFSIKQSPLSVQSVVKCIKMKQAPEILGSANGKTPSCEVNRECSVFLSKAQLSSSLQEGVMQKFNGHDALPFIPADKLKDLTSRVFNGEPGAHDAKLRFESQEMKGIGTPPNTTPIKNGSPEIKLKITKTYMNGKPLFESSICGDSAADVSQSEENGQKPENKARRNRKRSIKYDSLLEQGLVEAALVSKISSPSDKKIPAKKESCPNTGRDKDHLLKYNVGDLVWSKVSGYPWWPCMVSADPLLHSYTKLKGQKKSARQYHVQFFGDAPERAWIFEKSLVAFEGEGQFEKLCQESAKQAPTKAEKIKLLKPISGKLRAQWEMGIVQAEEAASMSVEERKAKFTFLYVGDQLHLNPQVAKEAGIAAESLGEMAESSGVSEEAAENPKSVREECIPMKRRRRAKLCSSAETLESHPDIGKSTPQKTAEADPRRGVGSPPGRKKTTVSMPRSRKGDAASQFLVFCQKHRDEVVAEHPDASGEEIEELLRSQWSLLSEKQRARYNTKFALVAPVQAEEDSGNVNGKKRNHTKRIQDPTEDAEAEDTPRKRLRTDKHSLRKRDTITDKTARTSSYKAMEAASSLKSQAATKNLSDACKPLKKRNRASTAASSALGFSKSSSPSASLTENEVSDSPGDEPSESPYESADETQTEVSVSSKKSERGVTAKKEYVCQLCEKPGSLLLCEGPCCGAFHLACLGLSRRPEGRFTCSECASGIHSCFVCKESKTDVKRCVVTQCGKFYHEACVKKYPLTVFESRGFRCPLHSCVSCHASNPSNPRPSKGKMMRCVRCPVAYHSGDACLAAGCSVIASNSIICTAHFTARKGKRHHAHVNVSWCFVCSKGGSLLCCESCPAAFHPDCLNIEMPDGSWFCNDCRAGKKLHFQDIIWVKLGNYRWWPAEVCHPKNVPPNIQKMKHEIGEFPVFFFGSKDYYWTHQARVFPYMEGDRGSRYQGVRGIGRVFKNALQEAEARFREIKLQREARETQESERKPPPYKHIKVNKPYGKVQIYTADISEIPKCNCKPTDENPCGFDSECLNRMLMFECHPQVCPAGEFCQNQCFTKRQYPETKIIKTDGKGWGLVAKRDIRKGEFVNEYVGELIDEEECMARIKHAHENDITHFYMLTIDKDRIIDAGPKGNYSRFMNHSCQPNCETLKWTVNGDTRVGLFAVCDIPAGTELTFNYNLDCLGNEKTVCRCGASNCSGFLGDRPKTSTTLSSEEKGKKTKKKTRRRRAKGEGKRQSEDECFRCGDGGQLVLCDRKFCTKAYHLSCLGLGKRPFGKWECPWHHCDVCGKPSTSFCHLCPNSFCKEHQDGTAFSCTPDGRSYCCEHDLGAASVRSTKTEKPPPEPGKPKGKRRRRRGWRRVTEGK

With `COc1ccc(-c2cc(Cn3cnc4c(N)ncnc43)c(N3CC[C@@H](F)[C@@H](N)C3)cn2)cc1F` [Example 5, 9-((5-((3S,4R)-3-amino-4-fluoropiperidin-1-yl)-2-(3-fluoro-4-methoxyphenyl)pyridin-4-yl)methyl)-9H-purin-6-amine], the figures for the IC50 in assay [1], in assay [2] (setting [5]) and in assay [3] were 10 to 1000 nM, 6460 nM and 1770 nM, respectively.
Turning to `Nc1ncnc2c1ncn2Cc1cc(-c2ccc(F)c(F)c2)ncc1N1CCC[C@](N)(COC2CCC2)C1` [Example 30, (R)-9-((5-(3-amino-3-(cyclobutoxymethyl)piperidin-1-yl)-2-(3,4-difluorophenyl)pyridin-4-yl)methyl)-9H-purin-6-amine], the IC50 in assay [1] was 1 to 10 nM; in assay [2] (setting [5]) it was 569 nM; in assay [3], 659 nM; in assay [4] (setting [6]) it was 2030 nM.
With `COc1ccc(-c2cc(Cn3cnc4c(N)ncnc43)c(N3CCC[C@](N)([C@H](C)OC)C3)cn2)cc1F` [Example 93, 9-((5-((R)-3-amino-3-((S)-1-methoxyethyl)piperidin-1-yl)-2-(3-fluoro-4-methoxyphenyl)pyridin-4-yl)methyl)-9H-purin-6-amine], the IC50 in assay [1] is 10 to 1000 nM; in assay [2] (setting [5]), 1390 nM; in assay [3], 3210 nM; in assay [4] (setting [6]), 3970 nM.
Regarding `CO[C@@H](C)[C@@]1(N)CCCN(c2cnc(-c3ccc(F)c(F)c3)cc2Cn2cnc3c(N)ncnc32)C1` [Example 95, 9-((5-((R)-3-amino-3-((S)-1-methoxyethyl)piperidin-1-yl)-2-(3,4-difluorophenyl)pyridin-4-yl)methyl)-9H-purin-6-amine], the IC50 in assay [1] is 10 to 1000 nM; in assay [2] (setting [5]) it was 1820 nM; in assay [3], 1650 nM; in assay [4] (setting [6]), 3030 nM.
Take `COc1ccc(-c2cc(Cn3cnc4c(N)ncnc43)c(N3CCC[C@](N)(COC(F)F)C3)cn2)cc1F` [Example 42, (R)-9-((5-(3-amino-3-((difluoromethoxy)methyl)piperidin-1-yl)-2-(3-fluoro-4-methoxyphenyl)pyridin-4-yl)methyl)-9H-purin-6-amine]: the IC50 in assay [1] was 10 to 1000 nM; in assay [2] (setting [5]), 1230 nM; in assay [3], 789 nM; in assay [4] (setting [6]), 10700 nM.
For `COc1ccc(-c2cc(Cn3cnc4c(N)ncnc43)c(N3CCC[C@](N)(COC4CCC4)C3)cn2)cc1F` [Example 32, (R)-9-((5-(3-amino-3-(cyclobutoxymethyl)piperidin-1-yl)-2-(3-fluoro-4-methoxyphenyl)pyridin-4-yl)methyl)-9H-purin-6-amine] the same measures were 1 to 10 nM, 270 nM, 196 nM and 728 nM.
Turning to `COc1ccc(-c2cc(Cn3cnc4c(N)ncnc43)c(N3CCC[C@](N)([C@@H](C)OC)C3)cn2)cc1F` [Example 94, 9-((5-((R)-3-amino-3-((R)-1-methoxyethyl)piperidin-1-yl)-2-(3-fluoro-4-methoxyphenyl)pyridin-4-yl)methyl)-9H-purin-6-amine], the IC50 in assay [1] is 10 to 1000 nM; in assay [2] (setting [5]), 3040 nM; in assay [3], 1090 nM; in assay [4] (setting [6]) it was 1200 nM.
Take `COc1ccc(-c2cc(Cn3cnc4c(N)ncnc43)c(N3CCC[C@@H](N)C3)cn2)cc1F` [Example 1, (R)-9-((5-(3-aminopiperidin-1-yl)-2-(3-fluoro-4-methoxyphenyl)pyridin-4-yl)methyl)-9H-purin-6-amine]: the IC50 in assay [1] was 10 to 1000 nM; in assay [2] (KMS-11, read-out: H3K36me2 FRET in KMS11-Par), 3030 nM; in assay [3] it was 750 nM; in assay [4] (KMS-11, 72 h), 4090 nM.
For `Nc1ncnc2c1ncn2Cc1cc(-c2ccc(F)c(F)c2)ncc1N1CCC[C@](N)(CC(F)F)C1` [Example 47, (S)-9-((5-(3-amino-3-(2,2-difluoroethyl)piperidin-1-yl)-2-(3,4-difluorophenyl)pyridin-4-yl)methyl)-9H-purin-6-amine], the IC50 was 10 to 1000 nM in assay [1], 1180 nM in assay [2] (setting [5]), 377 nM in assay [3] and 1540 nM in assay [4] (setting [6]).
For `CO[C@H](C)[C@@]1(N)CCCN(c2cnc(-c3ccc(F)c(F)c3)cc2Cn2cnc3c(N)ncnc32)C1` [Example 97, 9-((5-((R)-3-amino-3-((R)-1-methoxyethyl)piperidin-1-yl)-2-(3,4-difluorophenyl)pyridin-4-yl)methyl)-9H-purin-6-amine], in that order: 10 to 1000 nM, 1500 nM, 1160 nM and 1240 nM.
For `Nc1ncnc2c1ncn2Cc1cc(-c2ccc(F)c(F)c2)ncc1N1CCC[C@](N)(Cc2ncco2)C1` [Example 52, (S)-9-((5-(3-amino-3-(oxazol-2-ylmethyl)piperidin-1-yl)-2-(3,4-difluorophenyl)pyridin-4-yl)methyl)-9H-purin-6-amine], in that order: 1 to 10 nM, 1200 nM, 541 nM and 1320 nM.
